Data as given in PubChem BioAssay AID330 (DTP/NCI, 2004).
Values joined by “and” are separate entries in the source; they are usually repeats but may differ in a detail not shown here. Equal values may be shown once. Toxic doses and inconclusive results are not listed. Square brackets hold non-standard residues; d marks the D form. Peptide text beside a SMILES is read from it. * marks the point of attachment. Cbz = O=C(OCc1ccccc1)*; Nva = CCC[CH](N)C(=O)O

Test system: P388 leukemia ip, CD2F1 mice, survival T/C
Experiment: NCI In Vivo Anticancer Drug Screen. Data for tumor model P388 Leukemia (intraperitoneal) in CD2F1 (CDF1) mice
Settings: endpoint: median survival time, higher = longer survival
Summary of the method: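 Mice carrying the transplanted tumor received test compound or vehicle. Survival was recorded in each group, and the value is the treated-group measurement divided by that of the vehicle-treated control group.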

[1] = dose: 100.0 mg/kg/injection, schedule: Q01DX001 (ip), vehicle: saline with Tween-80
[2] = dose: 200.0 mg/kg/injection, schedule: Q01DX001 (ip), vehicle: saline with Tween-80
[3] = dose: 400.0 mg/kg/injection, schedule: Q01DX001 (ip), vehicle: saline with Tween-80
[4] = dose: 50.0 mg/kg/injection, schedule: Q01DX005 (ip), vehicle: saline with Tween-80
[5] = dose: 100.0 mg/kg/injection, schedule: Q01DX005 (ip), vehicle: saline with Tween-80
[6] = dose: 200.0 mg/kg/injection, schedule: Q01DX005 (ip), vehicle: saline with Tween-80
[7] = dose: 50.0 mg/kg/injection, schedule: Q01DX005 (ip), vehicle: Klucel (hydroxypropylcellulose) (HPC)
[8] = dose: 100.0 mg/kg/injection, schedule: Q01DX005 (ip), vehicle: Klucel (hydroxypropylcellulose) (HPC)
[9] = dose: 200.0 mg/kg/injection, schedule: Q01DX005 (ip), vehicle: Klucel (hydroxypropylcellulose) (HPC)
[10] = dose: 50.0 mg/kg/injection, schedule: Q01DX009 (ip), vehicle: Klucel (hydroxypropylcellulose) (HPC)
[11] = dose: 100.0 mg/kg/injection, schedule: Q01DX009 (ip), vehicle: Klucel (hydroxypropylcellulose) (HPC)

Cc1ccc(Cl)c(C(O)(C(F)(F)F)C(F)(F)F)c1
T/C (dose: 100.0 mg/kg/injection, schedule: Q01DX001 (ip), vehicle: other): 95 % of control | T/C [1]: 108 % of control | T/C (dose: 200.0 mg/kg/injection, schedule: Q01DX001 (ip), vehicle: other): 92 % of control | T/C [2]: 108 % of control | T/C [3]: 93 % of control

CC(N[Si](c1ccccc1)(c1ccccc1)C(C)(C)C)c1ccccc1 (stereo not given)
T/C [4]: 98 % of control | T/C [5]: 97 % of control | T/C [6]: 97 % of control

CC1=NC(c2ccccn2)=NNC(c2ccccn2)=C1c1ccccc1
T/C (dose: 25.0 mg/kg/injection, schedule: Q01DX009 (ip), vehicle: other): 113 % of control | T/C (dose: 50.0 mg/kg/injection, schedule: Q01DX009 (ip), vehicle: other): 116 % of control | T/C (dose: 100.0 mg/kg/injection, schedule: Q01DX009 (ip), vehicle: other): 116 % of control | T/C (dose: 200.0 mg/kg/injection, schedule: Q01DX009 (ip), vehicle: other): 114 % of control | T/C (dose: 400.0 mg/kg/injection, schedule: Q01DX009 (ip), vehicle: other): 120 % of control

CCCCNC(=O)C(C)OC(=O)C(CC)CCCC (stereo not given)
T/C (dose: 25.0 mg/kg/injection, schedule: Q01DX005 (ip), vehicle: Klucel (hydroxypropylcellulose) (HPC)): 105 % of control | T/C [7]: 100 % of control | T/C [8]: 102 % of control | T/C [9]: 105 % of control

CCC(C)(C)N=C(Nc1cccnc1)Nc1nccs1
T/C (dose: 100.0 mg/kg/injection, schedule: Q04DX003 (ip), vehicle: saline with Tween-80): 92 % of control | T/C (dose: 200.0 mg/kg/injection, schedule: Q04DX003 (ip), vehicle: saline with Tween-80): 94 % of control | T/C (dose: 400.0 mg/kg/injection, schedule: Q04DX003 (ip), vehicle: saline with Tween-80): 87 % of control

COC(=O)/C=C1\C2OC(C1C(=O)OC)C1OC(C)(C)OC21 (stereo not given)
T/C [4]: 99 % of control | T/C [5]: 103 % of control | T/C [6]: 96 % of control

NC(=S)N/N=C/C=N/NC(N)=S
T/C (dose: 50.0 mg/kg/injection, schedule: Q01DX009 (ip), vehicle: saline): 92 % of control | T/C (dose: 100.0 mg/kg/injection, schedule: Q01DX009 (ip), vehicle: saline): 90 % of control | T/C (dose: 200.0 mg/kg/injection, schedule: Q01DX009 (ip), vehicle: saline): 101 % of control

CCN(Cc1ccc(CN(CC)C(=O)c2c(-c3ccccc3)noc2C)cc1)C(=O)c1c(-c2ccccc2)noc1C
T/C (dose: 50.0 mg/kg/injection, schedule: Q01DX009 (ip), vehicle: suspension in saline): 90 % of control | T/C (dose: 100.0 mg/kg/injection, schedule: Q01DX009 (ip), vehicle: suspension in saline): 92 % of control | T/C (dose: 200.0 mg/kg/injection, schedule: Q01DX009 (ip), vehicle: suspension in saline): 86 % of control and 94 % of control

CCCCCC(Nc1nncs1)Nc1nncs1
T/C (dose: 60.0 mg/kg/injection, schedule: Q01DX005 (ip), vehicle: saline with Tween-80): 94 % of control | T/C (dose: 120.0 mg/kg/injection, schedule: Q01DX005 (ip), vehicle: saline with Tween-80): 96 % of control | T/C (dose: 240.0 mg/kg/injection, schedule: Q01DX005 (ip), vehicle: saline with Tween-80): 105 % of control

COC(=O)CC1(C(=O)OC)Oc2ccc(Br)cc2C(=O)N1c1cccc(Cl)c1Cl (stereo not given)
T/C [4]: 100 % of control | T/C [5]: 91 % of control | T/C [6]: 100 % of control

Nc1ccccc1Sc1ccc2c3c(cccc13)C(=O)N(c1ccccc1)C2=O
T/C [4]: 91 % of control | T/C [5]: 90 % of control | T/C [6]: 100 % of control

Nc1ccc(S(=O)(=O)Nc2ccccc2-c2nc(N)nc(N)n2)cc1
T/C (dose: 50.0 mg/kg/injection, schedule: Q01DX009 (ip), vehicle: saline with Tween-80): 98 % of control | T/C (dose: 100.0 mg/kg/injection, schedule: Q01DX009 (ip), vehicle: saline with Tween-80): 97 % of control | T/C (dose: 200.0 mg/kg/injection, schedule: Q01DX009 (ip), vehicle: saline with Tween-80): 94 % of control | T/C (dose: 400.0 mg/kg/injection, schedule: Q01DX009 (ip), vehicle: saline with Tween-80): 101 % of control

CCN(CC)CCNc1ccc(COC(=O)OC)c2sc3ccccc3c(=O)c12
T/C (dose: 2.5 mg/kg/injection, schedule: Q01DX005 (ip), vehicle: saline with Tween-80): 118 % of control | T/C (dose: 5.0 mg/kg/injection, schedule: Q01DX005 (ip), vehicle: saline with Tween-80): 124 % of control | T/C (dose: 6.25 mg/kg/injection, schedule: Q01DX005 (ip), vehicle: saline with Tween-80): 120 % of control | T/C (dose: 10.0 mg/kg/injection, schedule: Q01DX005 (ip), vehicle: saline with Tween-80): 124 % of control | T/C (dose: 12.5 mg/kg/injection, schedule: Q01DX005 (ip), vehicle: saline with Tween-80): 111 % of control | T/C (dose: 20.0 mg/kg/injection, schedule: Q01DX005 (ip), vehicle: saline with Tween-80): 122 % of control

O=C1CCC(=O)C1
T/C (dose: 60.0 mg/kg/injection, schedule: Q01DX005 (ip), vehicle: saline): 100 % of control | T/C (dose: 120.0 mg/kg/injection, schedule: Q01DX005 (ip), vehicle: saline): 93 % of control | T/C (dose: 240.0 mg/kg/injection, schedule: Q01DX005 (ip), vehicle: saline): 105 % of control

O=[As]O
T/C (dose: 0.5 mg/kg/injection, schedule: Q01DX010 (ip), vehicle: saline with Tween-80): 100 % of control | T/C (dose: 1.0 mg/kg/injection, schedule: Q01DX010 (ip), vehicle: saline with Tween-80): 109 % of control | T/C (dose: 2.0 mg/kg/injection, schedule: Q01DX010 (ip), vehicle: saline with Tween-80): 109 % of control

O=C(N/N=C/c1ccc(O)cc1O)c1cccnc1
T/C (dose: 12.5 mg/kg/injection, schedule: Q01DX009 (ip), vehicle: olive oil, sesame oil, peanut oil): 106 % of control | T/C (dose: 25.0 mg/kg/injection, schedule: Q01DX009 (ip), vehicle: olive oil, sesame oil, peanut oil): 105 % of control | T/C (dose: 50.0 mg/kg/injection, schedule: Q01DX009 (ip), vehicle: olive oil, sesame oil, peanut oil): 121 % of control | T/C (dose: 50.0 mg/kg/injection, schedule: Q01DX009 (oral), vehicle: saline with Tween-80): 108 % of control | T/C (dose: 100.0 mg/kg/injection, schedule: Q01DX009 (ip), vehicle: olive oil, sesame oil, peanut oil): 102 % of control | T/C (dose: 100.0 mg/kg/injection, schedule: Q01DX009 (oral), vehicle: saline with Tween-80): 108 % of control | T/C (dose: 200.0 mg/kg/injection, schedule: Q01DX009 (oral), vehicle: saline with Tween-80): 101 % of control | T/C (dose: 400.0 mg/kg/injection, schedule: Q01DX009 (oral), vehicle: saline with Tween-80): 105 % of control

C=C(C)C(=NC(C)(C)C)Nc1ccccc1
T/C (dose: 10.0 mg/kg/injection, schedule: Q01DX005 (ip), vehicle: saline): 119 % of control | T/C (dose: 12.5 mg/kg/injection, schedule: Q01DX009 (ip), vehicle: Klucel (hydroxypropylcellulose) (HPC)): 121 % of control | T/C (dose: 12.5 mg/kg/injection, schedule: Q01DX009 (ip), vehicle: saline with Tween-80): 116 % of control | T/C (dose: 25.0 mg/kg/injection, schedule: Q01DX009 (ip), vehicle: Klucel (hydroxypropylcellulose) (HPC)): 106 % of control | T/C [10]: 107 % of control | T/C (dose: 100.0 mg/kg/injection, schedule: Q01DX005 (ip), vehicle: saline): 152 % of control | T/C [11]: 107 % of control

CCCCCc1cc(O)c2c3c(c(=O)oc2c1)CP(=O)(c1ccccc1)CC3 (stereo not given)
T/C [1]: 102 % of control | T/C [2]: 98 % of control | T/C [3]: 90 % of control

COc1cc([N+](=O)[O-])ccc1N=Cc1ccc(C=Nc2ccc([N+](=O)[O-])cc2OC)cc1
T/C [10]: 95 % of control and 96 % of control | T/C [11]: 86 % of control and 96 % of control | T/C (dose: 200.0 mg/kg/injection, schedule: Q01DX009 (ip), vehicle: Klucel (hydroxypropylcellulose) (HPC)): 96 % of control

CCCC(NC(=O)OCc1ccccc1)C(=O)NC(CCSC)C(N)=O (stereo not given) (Cbz-[Nva]-Met-NH2; configuration not given here)
T/C [7]: 106 % of control | T/C [8]: 97 % of control | T/C [9]: 88 % of control

N#CC1CC(c2ccc([N+](=O)[O-])cc2)N(c2ccccc2)O1 (stereo not given)
T/C [1]: 95 % of control | T/C (dose: 100.0 mg/kg/injection, schedule: Q04DX002 (ip), vehicle: saline with Tween-80): 100 % of control and 104 % of control | T/C [2]: 94 % of control | T/C (dose: 200.0 mg/kg/injection, schedule: Q04DX002 (ip), vehicle: saline with Tween-80): 95 % of control and 88 % of control | T/C [3]: 92 % of control | T/C (dose: 400.0 mg/kg/injection, schedule: Q04DX002 (ip), vehicle: saline with Tween-80): 98 % of control and 90 % of control

O=S(=O)(F)c1cccc(Cl)c1C[P+](c1ccccc1)(c1ccccc1)c1ccccc1
T/C (dose: 15.0 mg/kg/injection, schedule: Q01DX005 (ip), vehicle: saline with Tween-80): 112 % of control
